Experimental data: patent US20070259849A1, “Azine-Carboxamides as Anti-Cancer Agents” (ASTRAZENECA AB, priority 2004, published 2007)
pIC50: −log10 of the molar value.

What follows are molecules tested against T1, human recombinant, purified wild type His-B-Raf protein kinase (Homo sapiens, UniProt P15056) (assay: B-Raf In Vitro ELISA Assay). Settings: phosphorylation of MEK1 (0.15 μM) by 2.5 nM B-Raf, 10 μM ATP, 1 hour preincubation at 25° C.
T1 construct: His
Assay type: biochemical
Method: B-Raf In Vitro ELISA Assay
Activity of human recombinant, purified wild type His-B-Raf protein kinase was determined in vitro using an enzyme-linked immunosorbent assay (ELISA) assay format, which measures phosphorylation of the B-Raf substrate, human recombinant, purified His-derived (detagged) MEK1. The reaction utilized 2.5 nM B-Raf, 0.15 μM MEK1 and 10 μM adenosine triphosphate (ATP) in 40 mM N-(2-hydroxyethyl)piperazine-N′-(2-ethanesulfonic acid hemisodium salt (HEPES), 5 mM 1,4-dithio-DL-threitol (DTT), 10 mM MgCl2, 1 mM ethylenediaminetetraacetic acid (EDTA) and 0.2 M NaCl (1×HEPES buffer), with or without compound at various concentrations, in a total reaction volume of 25 μl in 384 well plates. B-Raf and compound were preincubated in 1×HEPES buffer for 1 hour at 25° C. Reactions were initiated with addition of MEK1 and ATP in 1×HEPES buffer and incubated at 25° C. for 50 minutes and reactions stopped by addition of 10 μl 175 mM EDTA (final concentration 50 mM) in 1× HEPES buffer. 5 μl of the assay mix was then diluted 1:20 into 50 mM EDTA in 1×HEPES buffer, transferred to 384 well black high protein binding plates and incubated overnight at 4° C. Plates were washed in tris buffered saline containing 0.1% Tween20 (TBST), blocked with 50 μl Superblock (Pierce) for 1 hour at 25° C., washed in TBST, incubated with 50 μl rabbit polyclonal anti-phospho-MEK antibody (Cell Signaling) diluted 1:1000 in TBS for 2 hours at 25° C., washed with TBST, incubated with 50 μl goat anti-rabbit horseradish peroxidase-linked antibody (Cell Signaling) diluted 1:2000 in TBS for 1 hour at 25° C. and washed with TBST. 50 μl of fluorogenic peroxidase substrate (Quantablu—Pierce) was added and following incubation for 45-60 minutes, 50 μl QuantabluSTOP (Pierce) was added. Blue fluorescent product was detected at excitation 325 and emission 420 using a TECAN Ultra plate reader. Data was graphed and IC50s calculated using Excel Fit (Microsoft).

T1 sequence (P15056 whole entry): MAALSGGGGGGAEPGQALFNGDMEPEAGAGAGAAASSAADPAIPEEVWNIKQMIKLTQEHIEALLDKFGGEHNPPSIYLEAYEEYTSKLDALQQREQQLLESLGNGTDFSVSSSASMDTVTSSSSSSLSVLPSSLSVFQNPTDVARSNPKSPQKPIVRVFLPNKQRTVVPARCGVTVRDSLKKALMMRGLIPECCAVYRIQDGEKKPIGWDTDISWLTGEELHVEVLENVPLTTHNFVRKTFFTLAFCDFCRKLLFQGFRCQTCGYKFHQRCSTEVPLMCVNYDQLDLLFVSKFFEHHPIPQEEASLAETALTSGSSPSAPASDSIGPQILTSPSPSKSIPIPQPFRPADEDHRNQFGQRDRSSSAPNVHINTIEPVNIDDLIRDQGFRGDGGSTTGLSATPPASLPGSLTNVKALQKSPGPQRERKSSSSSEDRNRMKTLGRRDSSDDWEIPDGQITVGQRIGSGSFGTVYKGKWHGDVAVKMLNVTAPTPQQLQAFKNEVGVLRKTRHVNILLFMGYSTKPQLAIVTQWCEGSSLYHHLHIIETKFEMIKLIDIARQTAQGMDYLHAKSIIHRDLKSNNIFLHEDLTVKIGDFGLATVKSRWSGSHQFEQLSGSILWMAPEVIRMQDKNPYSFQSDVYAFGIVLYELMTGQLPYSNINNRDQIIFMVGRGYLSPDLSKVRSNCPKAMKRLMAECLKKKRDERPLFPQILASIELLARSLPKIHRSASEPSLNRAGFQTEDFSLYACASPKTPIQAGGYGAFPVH

Compared with `Cc1cc(C(=O)Nc2cc(NC(=O)c3cccc(C(C)(C)C#N)c3)ccc2C)nc(N2CCOCC2)n1` [Example 7, N^1-[3-(1-Cyano-1-methylethyl)benzoyl]-N^3-[2-(morpholino)-4-methylpyrimidin-6-ylcarbonyl]-4-methylbenzene-1,3-diamine], `Cc1cc(C(=O)Nc2cc(NC(=O)c3cccc(C(C)(C)C#N)c3)ccc2C)nc(N2CCCCC2)n1` [Example 1, N^1-[3-(1-Cyano-1-methylethyl)benzoyl]-N^3-[2-(piperidin-1-yl)-4-methylpyrimidin-6-ylcarbonyl]-4-methylbenzene-1,3-diamine] is 0.98 log units lower in pIC50: 6.22 for the first, 5.24 for the second. The first is the more potent here.

Work on `Cc1cc(C(=O)Nc2cc(NC(=O)c3cccc(C(F)(F)F)c3)ccc2C)nc(N2CCN(C)CC2)n1` [Example 49, N^1-(3-Trifluoromethylbenzoyl)-N^3-[2-(4-methylpiperazin-1-yl)-4-methylpyrimidin-6-ylcarbonyl]-4-methylbenzene-1,3-diamine] yielded a pIC50 of 6.10.
